Measured values taken from patent EP2818471A1, “Nitrogen bicyclic compounds as inhibitors for Scyl1 and Grk5” (Max-Planck-Gesellschaft zur Förderung der Wissenschaften …, priority 2013, dated 2014).

Tested on: beta-TC6 cells
Experiment: Insulin HTRF assay, relative activity Ar normalized to sunitinib
Format: cell-based
Settings: Mus musculus, normalized to positive control sunitinib (5 µM = 100%), Table 10
Summary of the method: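 Relative activity Ar was scaled between 0% and 100% controls, with sunitinib at 5 µM f.c. as reference. Insulin released by beta-TC6 cells was quantified by sandwich HTRF (Eu-cryptate/XL665 antibodies, 120 min RT). Cells had been seeded 24 or 48 h, then treated 2–4 h at 37°C in induction buffer, 0.5% DMSO.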

| SMILES | Emax |
| --- | --- |
| Cc1ccccc1-c1nnc2ccc(-c3cccc(C(=O)NCCO)c3)cn12 [compound 224, N-(2-hydroxyethyl)-3-[3-(o-tolyl)-[1,2,4]triazolo[4,3-a]pyridin-6-yl]benzamide] | 10 to 20% |
| Cc1ccccc1-c1nnc2ccc(-c3ccc(C(N)=O)cc3)cn12 [compound 225, 4-[3-(o-tolyl)-[1,2,4]triazolo[4,3-a]pyridin-6-yl]benzamide] | 20 to 50% |
| c1nc(-c2nnc3ccc(-c4ccc(N5CCOCC5)cc4)cn23)cs1 [compound 226, 4-[4-(3-thiazol-4-yl-[1,2,4]triazolo[4,3-a]pyridin-6-yl)phenyl]morpholine] | 50 to 100% |
| CN(C)c1cccc(-c2ccc3nnc(-c4cscn4)n3c2)c1 [compound 227, N,N-dimethyl-3-(3-thiazol-4-yl-[1,2,4]triazolo[4,3-a]pyridin-6-yl)aniline] | 50 to 100% |
| Fc1ccc(-c2ccc3nnc(-c4cscn4)n3c2)cc1Cl [compound 228, 4-[6-(3-chloro-4-fluoro-phenyl)-[1,2,4]triazolo[4,3-a]pyridin-3-yl]thiazole] | 20 to 50% |
| c1cc2cc(-c3ccc4nnc(-c5cscn5)n4c3)ccc2[nH]1 [compound 229, 4-[6-(1H-indol-5-yl)-[1,2,4]triazolo[4,3-a]pyridin-3-yl]thiazole] | 50 to 100% |
| NC(=O)c1cccc(-c2ccc3nnc(-c4cscn4)n3c2)c1 [compound 230, 3-(3-thiazol-4-yl-[1,2,4]triazolo[4,3-a]pyridin-6-yl)benzamide] | 20 to 50% |
| COc1ccc(-c2ccc3nnc(-c4cscn4)n3c2)c(C)c1 [compound 231, 4-[6-(4-methoxy-2-methyl-phenyl)-[1,2,4]triazolo[4,3-a]pyridin-3-yl]thiazole] | 50 to 100% |
| O=S1(=O)CCN(CC#Cc2ccc3nnc(-c4cscn4)n3c2)CC1 [compound 232, 4-[3-(3-thiazol-4-yl-[1,2,4]triazolo[4,3-a]pyridin-6-yl)prop-2-ynyl]-1,4-thiazinane 1,1-dioxide] | 10 to 20% |
| Clc1ccccc1-c1ccc2nnc(-c3cscn3)n2c1 [compound 233, 4-[6-(2-chlorophenyl)-[1,2,4]triazolo[4,3-a]pyridin-3-yl]thiazole] | 50 to 100% |
| COc1cccc(-c2ccc3nnc(-c4cscn4)n3c2)c1 [compound 234, 4-[6-(3-methoxyphenyl)-[1,2,4]triazolo[4,3-a]pyridin-3-yl]thiazole] | 50 to 100% |
| COc1ccc(-c2ccc3nnc(-c4ccc(OCCCN(C)C)cc4)n3c2)cc1OC [compound 236, 3-[4-[6-(3,4-dimethoxyphenyl)-[1,2,4]triazolo[4,3-a]pyridin-3-yl]phenoxy]-N,N-dimethyl-propan-1-amine] | 50 to 100% |
| CN(C)CCCOc1ccc(-c2nnc3ccc(-c4ccc(Cl)cc4)cn23)cc1 [compound 237, 3-[4-[6-(4-chlorophenyl)-[1,2,4]triazolo[4,3-a]pyridin-3-yl]phenoxy]-N,N-dimethyl-propan-1-amine] | 20 to 50% |
| CN(C)CCCOc1ccc(-c2nnc3ccc(C#Cc4ccc(C(=O)N(C)C)cc4)cn23)cc1 [compound 238, 4-[2-[3-[4-[3-(dimethylamino)propoxy]phenyl]-[1,2,4]triazolo[4,3-a]pyridin-6-yl]ethynyl]-N,N-dimethyl-benzamide] | 20 to 50% |
| COc1cc(C#Cc2ccc3nnc(-c4ccc(OCCCN(C)C)cc4)n3c2)cc(OC)c1 [compound 239, 3-[4-[6-[2-(3,5-dimethoxyphenyl)ethynyl]-[1,2,4]triazolo[4,3-a]pyridin-3-yl]phenoxy]-N,N-dimethyl-propan-1-amine] | 20 to 50% |
| CNC(=O)c1ccc(-c2ccc3nnc(-c4ccc(OCCCN(C)C)cc4)n3c2)cc1 [compound 240, 4-[3-[4-[3-(dimethylamino)propoxy]phenyl]-[1,2,4]triazolo[4,3-a]pyridin-6-yl]-N-methyl-benzamide] | 20 to 50% |
| CC(=O)Nc1cccc(-c2ccc3nnc(-c4ccc5nccnc5c4)n3c2)c1 [compound 241, N-[3-(3-quinoxalin-6-yl-[1,2,4]triazolo[4,3-a]pyridin-6-yl)phenyl]acetamide] | 50 to 100% |
| CN(C)CCNC(=O)c1cccc(-c2ccc3nnc(-c4ccc5nccnc5c4)n3c2)c1 [compound 242, N-(2-dimethylaminoethyl)-3-(3-quinoxalin-6-yl-[1,2,4]triazolo[4,3-a]pyridin-6-yl)benzamide] | ≥ 100% |
| CN1CCN(C(=O)c2cccc(-c3ccc4nnc(-c5ccc6nccnc6c5)n4c3)c2)CC1 [compound 243, (4-methylpiperazin-1-yl)-[3-(3-quinoxalin-6-yl-[1,2,4]triazolo[4,3-a]pyridin-6-yl)phenyl]methanone] | 20 to 50% |
| COc1cc(-c2ccc3nnc(-c4ccc5nccnc5c4)n3c2)ccc1O [compound 244, 2-methoxy-4-(3-quinoxalin-6-yl-[1,2,4]triazolo[4,3-a]pyridin-6-yl)phenol] | 50 to 100% |
| c1cnc2cc(-c3nnc4ccc(-c5ccoc5)cn34)ccc2n1 [compound 245, 6-[6-(3-furyl)-[1,2,4]triazolo[4,3-a]pyridin-3-yl]quinoxaline] | 50 to 100% |
| CN(C)C(=O)c1cccc(-c2ccc3nnc(-c4ccc5nccnc5c4)n3c2)c1 [compound 246, N,N-dimethyl-3-(3-quinoxalin-6-yl-[1,2,4]triazolo[4,3-a]pyridin-6-yl)benzamide] | 50 to 100% |

| SMILES | Emax |
| --- | --- |
| Oc1cccc(-c2ccc3nnc(-c4ccccn4)n3c2)c1 [compound 247, 3-[3-(2-pyridyl)-[1,2,4]triazolo[4,3-a]pyridin-6-yl]phenol] | 50 to 100% |
| OCc1cccc(-c2ccc3nnc(-c4ccccn4)n3c2)c1 [compound 248, [3-[3-(2-pyridyl)-[1,2,4]triazolo[4,3-a]pyridin-6-yl]phenyl]methanol] | 20 to 50% |
| CS(=O)(=O)c1cccc(-c2ccc3nnc(-c4ccccn4)n3c2)c1 [compound 249, 6-(3-methylsulfonylphenyl)-3-(2-pyridyl)-[1,2,4]triazolo[4,3-a]pyridine] | 20 to 50% |
| COc1ccccc1CC(=O)Nc1cnc2cnc(-c3cccc(Cl)c3Cl)cn12 [compound 250, N-[6-(2,3-dichlorophenyl)imidazo[1,2-a]pyrazin-3-yl]-2-(2-methoxyphenyl)acetamide] | 20 to 50% |
| COc1cccc(CC(=O)Nc2cnc3cnc(-c4ccccc4CN(C)C)cn23)c1 [compound 252, N-[6-[2-(dimethylaminomethyl)phenyl]imidazo[1,2-a]pyrazin-3-yl]-2-(3-methoxyphenyl)acetamide] | 20 to 50% |
| CCCC/C=C/c1cn2c(NC(=O)Cc3cccc(OC)c3)cnc2cn1 [compound 253, N-[6-[(E)-hex-1-enyl]imidazo[1,2-a]pyrazin-3-yl]-2-(3-methoxyphenyl)acetamide] | 10 to 20% |
| COc1cccc(CC(=O)Nc2cnc3cnc(-c4ccc5[nH]ccc5c4)cn23)c1 [compound 254, N-[6-(1H-indol-5-yl)imidazo[1,2-a]pyrazin-3-yl]-2-(3-methoxyphenyl)acetamide] | 10 to 20% |
| COc1cccc(CC(=O)Nc2cnc3cnc(-c4ccc(Oc5ccccc5)cc4)cn23)c1 [compound 259, 2-(3-methoxyphenyl)-N-[6-(4-phenoxyphenyl)imidazo[1,2-a]pyrazin-3-yl]acetamide] | 10 to 20% |
| COc1cccc(CC(=O)Nc2cnc3cnc(-c4cccs4)cn23)c1 [compound 260, 2-(3-methoxyphenyl)-N-[6-(2-thienyl)imidazo[1,2-a]pyrazin-3-yl]acetamide] | 20 to 50% |
| COc1cccc(CC(=O)Nc2cnc3cnc(-c4cnn(C)c4)cn23)c1 [compound 261, 2-(3-methoxyphenyl)-N-[6-(1-methylpyrazol-4-yl)imidazo[1,2-a]pyrazin-3-yl]acetamide] | 10 to 20% |
| O=C(Nc1cnc2cnc(-c3ccsc3)cn12)c1cccs1 [compound 263, N-[6-(3-thienyl)imidazo[1,2-a]pyrazin-3-yl]thiophene-2-carboxamide] | 20 to 50% |
| COc1ccccc1-c1cn2c(NC(=O)c3ccccc3)cnc2cn1 [compound 267, N-[6-(2-methoxyphenyl)imidazo[1,2-a]pyrazin-3-yl]benzamide] | 20 to 50% |
| CN(C)c1cccc(-c2cn3c(NC(=O)c4ccccc4)cnc3cn2)c1 [compound 268, N-[6-[3-(dimethylamino)phenyl]imidazo[1,2-a]pyrazin-3-yl]benzamide] | 50 to 100% |
| Nc1ccc(-c2cn3c(NC(=O)c4ccccc4)cnc3cn2)cc1 [compound 269, N-[6-(4-aminophenyl)imidazo[1,2-a]pyrazin-3-yl]benzamide] | 20 to 50% |
| CC(C(=O)Nc1cnc2cnc(-c3ccc4c(c3)OCO4)cn12)c1ccccc1 (stereo not shown) [compound 270, N-[6-(1,3-benzodioxol-5-yl)imidazo[1,2-a]pyrazin-3-yl]-2-phenyl-propanamide] | 20 to 50% |
| CC(C(=O)Nc1cnc2cnc(-c3cccc([N+](=O)[O-])c3)cn12)c1ccccc1 (stereo not shown) [compound 271, N-[6-(3-nitrophenyl)imidazo[1,2-a]pyrazin-3-yl]-2-phenyl-propanamide] | 20 to 50% |
| O=C(Nc1cnc2cnc(-c3cnn(Cc4ccccc4)c3)cn12)C1CCC1 [compound 273, N-[6-(1-benzylpyrazol-4-yl)imidazo[1,2-a]pyrazin-3-yl]cyclobutanecarboxamide] | 20 to 50% |
| CC(=O)c1cccc(-c2cn3c(NC(=O)CC4CC4)cnc3cn2)c1 [compound 274, N-[6-(3-acetylphenyl)imidazo[1,2-a]pyrazin-3-yl]-2-cyclopropyl-acetamide] | 20 to 50% |
| O=C(Nc1cnc2cnc(-c3ccc4ccccc4c3)cn12)C1CCOC1 (stereo not shown) [compound 275, N-[6-(2-naphthyl)imidazo[1,2-a]pyrazin-3-yl]tetrahydrofuran-3-carboxamide] | 10 to 20% |
| Nc1cccc(-c2cn3c(NC(=O)Cc4ccc(F)c(F)c4)cnc3cn2)c1 [compound 277, N-[6-(3-aminophenyl)imidazo[1,2-a]pyrazin-3-yl]-2-(3,4-difluorophenyl)acetamide] | 10 to 20% |
| O=C(Cc1ccsc1)Nc1cnc2cnc(-c3ccccc3F)cn12 [compound 278, N-[6-(2-fluorophenyl)imidazo[1,2-a]pyrazin-3-yl]-2-(3-thienyl)acetamide] | 10 to 20% |
